For orientation: EC50 means the concentration that produces a half-maximal response. One may read the IC50 as the concentration at which inhibition is half-maximal.

One experiment concerns wild type HIV-1. As to the kind of experiment: microbe, parasite or virus in culture. It counts as cell-based, human immunodeficiency virus type 1 (HIV-1). Conditions: Human immunodeficiency virus 1, Hela-JC53, read-out: EC50 WT.
The target of experiment [1] is T1, wild-type HIV reverse transcriptase (Human immunodeficiency virus type 1 group M subtype B, UniProt P04585).
T1 construct: wild-type and four mutant HIV reverse transcriptases
The experiment can be described thus: Activity on wild type reverse transcriptase (Table 1 IC50 WT). It counts as biochemical.

In experiment [2] the target is mutant HIV reverse transcriptases (Human immunodeficiency virus type 1, UniProt P12497, Y768C, cells depend on it). It counts as cell-based.
The target in experiment [3] is mutant HIV reverse transcriptases (Human immunodeficiency virus type 1, UniProt P12497, Y775L, cells depend on it). The format is cell-based.

On to `CCc1ccc(-n2c(Br)nnc2SCC(=O)Nc2ccc(C(=O)NCCO)cc2Cl)c2ccccc12` [compound 132], for which the EC50 (in the experiment on wild type HIV-1; in experiment [2]; in experiment [3]) was below 50 nM throughout. For the same compound, the IC50 in experiment [1] is below 50 nM.

Regarding `CCc1ccc(-n2c(Br)nnc2SCC(=O)Nc2ccc(C(=O)N3CCCCC3CO)cc2Cl)c2ccccc12` (stereo not shown) [compound 133], the EC50 (in the experiment with wild type HIV-1; in experiment [2]; in experiment [3]) was below 50 nM throughout. Besides, the IC50 in experiment [1] was below 50 nM.

In the case of `CCc1ccc(-n2c(Br)nnc2SCC(=O)Nc2ccc(C(=O)N3CCC(O)CC3)cc2Cl)c2ccccc12` [compound 134], the EC50 (in the experiment with wild type HIV-1; in experiment [2]; in experiment [3]) was below 50 nM in each case. Also, the IC50 in experiment [1] was below 50 nM.

Take `CC[C@H](C)[C@H](NC(=O)c1ccc(NC(=O)CSc2nnc(Br)n2-c2ccc(C3CC3)c3ccccc23)c(Cl)c1)C(=O)O` [compound 135]: the figures for the EC50 (in the experiment with wild type HIV-1; in experiment [2]; in experiment [3]) were below 50 nM, below 50 nM and above 100 nM, respectively. Also, the IC50 in experiment [1] was below 50 nM.

Turning to `CCc1ccc(-n2c(Br)nnc2SCC(=O)Nc2ccc(C(=O)NCC(C)(C)N)cc2Cl)c2ccccc12` [compound 136], the EC50 (in the experiment with wild type HIV-1; in experiment [2]; in experiment [3]) was below 50 nM throughout. In experiment [1], the IC50 was below 50 nM.

`CCc1ccc(-n2c(Br)nnc2SCC(=O)Nc2ccc(C(=O)NCCCCO)cc2Cl)c2ccccc12` [compound 137]: the EC50 (in the experiment with wild type HIV-1; in experiment [2]; in experiment [3]) was below 50 nM each time. The same compound registered an IC50 in experiment [1] below 50 nM.

In the case of `CCc1ccc(-n2c(Br)nnc2SCC(=O)Nc2ccc(C(=O)N3CCC(CN)CC3)cc2Cl)c2ccccc12` [compound 138], the EC50 (in the experiment on wild type HIV-1; in experiment [2]; in experiment [3]) was below 50 nM each time. The same compound gave an IC50 in experiment [1] below 50 nM.

On to `CCc1ccc(-n2c(Br)nnc2SCC(=O)Nc2ccc(C(=O)NCC3CCNCC3)cc2Cl)c2ccccc12` [compound 139], for which the EC50 in the experiment with wild type HIV-1 is below 50 nM; in experiment [2], below 50 nM; in experiment [3] it was 50 to 100 nM. Also, the IC50 in experiment [1] was above 100 nM.

With `CCc1ccc(-n2c(Br)nnc2SCC(=O)Nc2ccc(C(=O)N[C@@H](CO)C(=O)OC)cc2Cl)c2ccccc12` [compound 140], the EC50 (in the experiment with wild type HIV-1; in experiment [2]; in experiment [3]) was below 50 nM throughout. Besides, in experiment [1], the IC50 was below 50 nM.

Take `Cc1cc(S(N)(=O)=O)ccc1NC(=O)C(C)Sc1nnc(Br)n1-c1c(C)ccc2ccccc12` (stereo not shown) [compound 142]: the results for the EC50 (with wild type HIV-1; in experiment [2]; in experiment [3]) were below 50 nM, below 50 nM and above 100 nM, respectively. In addition, the IC50 in experiment [1] was below 50 nM.

For the origin of these results see patent US8946273B2, “S-Triazolyl alpha-mercapto acetanilides as inhibitors of HIV reverse transcriptase” (priority 2011, dated 2015).
